According to patent US20170333560A1, “Pharmaceutical Composition That Includes A Neutral Carrier Treated With Energy And Related Methods Of Treatment” (priority 2016, published 2017):

Columns and labels:
[1] = test system: obsessive-compulsive disorder with prevailing anxiety disorders; experiment: Study versus Diazepam in obsessive-compulsive disorder (HAM-A, STAI, SAN); assay type: in vivo, human
Description: (§1) A study was conducted to examine the efficacy of the claimed drug, formulated as a water solution (liquid dosage form) of the activated (potentized) energy-treated carrier, obtained by multiple consecutive dilution of the initial matrix solution in an aqueous-alcoholic diluent, combined with external mechanical impact—shaking of each resulting dilution, to a degree of 100^200, equivalent to a centesimal (C200) homeopathic dilution (wherein the energy treatment of the initial neutral carrier has been accomplished by exposing it to an electric current caused by a difference of potentials being applied to electrodes placed in the initial liquid carrier and which is proportional in amplitude to an amplified combined, summed signal, formed by summing the resultant signals—biopotential differences of individual referential derivations recorded in five healthy donors using the internationally recognized 10-20 system, which involves 19 active recording electrodes placed in regular positions all over the scalp and one reference electrode located on the ear-lobe)—further referred to as AP drug—in treating obsessive-compulsive disorder.
The tolerability and anxiolytic efficacy of AP drug was examined versus Diazepam in patients with obsessive-compulsive disorder with prevailing anxiety disorders. Inclusion criteria: • 1. Subjects aged from 18 to 65 years. • 2. Subjects meeting the obsessive-compulsive disorder criteria (ICD-10 code F42). • 3. Subjects receiving no treatment with psychoactive agents at least for a week before and at the time of the trial.
The study included 20 patients (8 men and 12 women) aged between 19 and 62 years old. The mean patient age and mean duration of disease were 38.0±1.6 years and 2.1±0.5 years, respectively.
The duration of treatment was […]. The patients randomized to AP drug (45) received it at a dose of 20 drops 4 times daily; the rest 35 patients were assigned to receive Diazepam at 15 mg daily.
The patients were assessed for OCD symptom severity at baseline (day 0) and at days 7, 14, and 28.

[2] = test system: depression in patients with post-traumatic stress disorders; experiment: Comparative trial versus Heptral in stress-related depression (HAM-D, HADS, CGI); assay type: in vivo, human; design: CGI Efficacy Index / CGI Severity scale total score / CGI Improvement scale total score: scale not given here
Description: A randomized, […] study was conducted to examine the efficacy and safety of the claimed drug, formulated as a solid dosage form containing lactose granules impregnated with water-alcohol solution of the liquid activated (potentized) energy-treated carrier, obtained by multiple consecutive dilution of the initial matrix solution in an aqueous-alcoholic diluent, combined with external mechanical impact—shaking of each resulting dilution, to a degree of 100^200, equivalent to a centesimal (C200) homeopathic dilution (wherein the energy treatment of the initial liquid carrier has been accomplished by exposing it to an electric current caused by a difference of potentials being applied to electrodes placed in the initial liquid carrier and which is proportional in amplitude to an amplified combined, summed signal, formed by summing the resultant signals—biopotential differences of individual referential derivations recorded in five healthy donors using the internationally recognized 10-20 system, which involves 19 active recording electrodes placed in regular positions all over the scalp and one reference electrode located on the ear-lobe)—further referred to as AP drug, where it was used for treating depression in patients with post-traumatic stress disorders.
AP drug was administered to manage the depressive symptoms—in parallel to Heptral (adametionine), used as a comparator in efficacy assessment. AP drug was administered for 4 weeks at a dose of 2 tablets 4 times daily. Heptral was used at 400 mg 3 times (1200 mg) daily.
An open comparative clinical trial was performed which involved 30 patients (16 men and 14 women) assigned to two parallel groups: 15 patients in the group of AP drug and 15 in the heptral group. The mean age of participants assigned to AP drug was 38.0±4.39 years;
The period of study participation was 8 weeks (the total treatment duration of 4 weeks and 4 weeks of follow-up).
Neither of the patient groups was allowed to take psychoactive medications during the study. The drugs not prohibited for use during the treatment were medications for the underlying traumatic illness and co-existing somatic disorders. The study enrolled inpatients aged from 18 to 65 years old, who had been receiving medical attention for bodily injuries resulting from car accidents, which had taken place under circumstances threatening the life or welfare of the patient or/and their friends or family members suffering from anxiety mental disorders, such as (defined by the ICD-10) reaction to severe stress, and adjustment disorders (F43); adjustment disorders (F43.2); adjustment disorder with mixed anxiety and depressed mood (F43.23).
1. Reduced severity of depressive symptoms and signs as measured by the HADS. 2. Reduced severity of depressive symptoms and signs as measured by the HAM-D 3. Efficacy Index assessment on the Clinical Global Impression (CGI) scale.
The patients' mental health was examined at baseline—at admission to the clinic, following 1, 2 and 4 weeks of treatment, and 4 weeks after treatment discontinuation (follow-up).
The effect of study treatment was evaluated according to changes in the total HAM-D score and scoring outcomes on the HADS anxiety and depression subscales. In addition, the Clinical Global Impression scale was administered to primarily estimate the Efficacy Index for the treatment conducted.

[3] = test system: pseudoneurotic disorder in patients with organic brain disease; experiment: Study of pseudoneurotic disorder in organic brain disease (anxiety levels, Hamilton scale); assay type: in vivo, human
Description: as §1, with “pseudoneurotic disorder in patients with organic brain disease. […]” for “obsessive-compulsive disorder.”

[4] = test system: children with clinical signs and symptoms of a hyperkinetic disorder (HD); experiment: Comparative study versus piracetam in children with hyperkinetic disorder (SNAP-IV, TOVA, fine motor skills); assay type: in vivo, human; conditions: for TOVA Commission errors, % / TOVA Omission errors, % / TOVA Response time: after two months
From the text: The study included 57 children aged from 6 to 9 years (40 boys and 17 girls), who were nursery/preschool attendants and primary school students.
The inclusion criteria were: 1. Children with clinical signs and symptoms of a hyperkinetic disorder (HD) meeting the ICD-10 criteria (F 90); 2. Age range: 6 to 9 years; 3. At least a medium IQ score (90 points) on the Wechsler Intelligence Scale.
The study excluded children with behavior disturbances related to other mental disorders. Children with HD signs and symptoms who were allocated to the group of test treatment (n=30) received AP drug as a monotherapy, at 2 tablets 3 times daily for 2 months.
This assessment was repeated following two months of treatment with AP drug (test group) and piracetam (control group). The scores obtained were compared with the normative rating results and statistically analyzed (Table 11).
The computer-based psychophysiological TOVA assessment involved three sets of tests measuring inattention (omission errors), impulsivity (commission errors), and speed of information processing (response time). The baseline measurements of HD children were compared with those obtained in the test group (AP drug) and in the control group (piracetam) after two months of treatment.

[5] = test system: scopolamine-induced amnesia in male albino Wistar rats; experiment: Scopolamine-induced amnesia for passive avoidance conditioning; assay type: in vivo, rat
Description: as §1, with “evaluate” for “examine”, “nootropic effect” for “efficacy”, “liquid” for “neutral”, “drug, using standard experimental approaches—by examining the test drug's antiamnestic effects in scopolamine-induced amnesia for passive avoidance conditioning in sexually mature rats. A total of 36 male albino Wistar rats were used for the study.” for “drug—in treating obsessive-compulsive disorder.”
For amnesia induction, 15 minutes prior to passive avoidance training, the animals were administered a single intraperitoneal dose (2 mg/kg) of a muscarinic receptor antagonist—scopolamine.
AP drug was administered to 12 rats intragastrically, at 2.5 ml/kg daily, prior to training (1 hour before the start of the experiment), immediately after training, 24 hours post training, and 1 hour prior to the passive avoidance recall test. […]
On the memory recall test, the rats' behavior was evaluated by examining: latency time taken by test animals to first enter the dark compartment and total time spent therein over a certain time period.
The conditioning of passive avoidance behavior was as follows: On day 1, the animals were trained to stay in a shuttle box, which consisted of a large, 300×300×250 mm, white illuminated compartment (with transparent walls) and a smaller, 150×150×180 mm, black dark compartment with an electrical grid floor. […] For 3 minutes, the total times of the rat's stay in the small compartment and latency before moving in were recorded. […]
The data gathered were recorded as the mean (M) and standard error of the mean (SEM). […] The results of examining the rats' memory recall were analyzed for statistical significance with the Wilcoxon test. […]

## CN1C(=O)CN=C(c2ccccc2)c2cc(Cl)ccc21 [Diazepam]
[1]; Day 7
  HAM-A scores: 19.02
[1]; Day 14
  HAM-A scores: 12.93
[1]; at 28 days
  Average reduction of HAM-A scores: 70.2%
  Percentage of patients exhibiting treatment response (50% reduction of mean HAM-A score and over): 100%
[1]; at treatment completion
  Mean SAN score: 3.6
[1]; throughout the study
  Occurrence of adverse reactions: 82.9%
[1]; treatment completion
  Reduction in trait anxiety scores (STAI): 22.3%
  Reduction of situational anxiety (STAI) scores: 29.6%

## C[S+](CC[C@H](N)C(=O)[O-])C[C@H]1O[C@@H](n2cnc3c(N)ncnc32)[C@H](O)[C@@H]1O (stereo partly shown) [Heptral, adametionine]
[2]; Visit 1 (baseline)
  CGI Severity scale total score: 3.8 ± 0.17
[2]; Visit 1 (baseline), n = 15
  Total HADS depression score: 17.5
  Total HAM-D score: 26.2
[2]; Visit 2 (week 1)
  CGI Efficacy Index: 1.1 ± 0.08
  CGI Improvement scale total score: 2.9 ± 0.07
  CGI Severity scale total score: 2.9 ± 0.12
  Total HADS depression score: 13.2
  Total HAM-D score: 23.1
[2]; Visit 3 (week 2)
  CGI Efficacy Index: 1.8 ± 0.19
  CGI Improvement scale total score: 2.1 ± 0.15
  CGI Severity scale total score: 1.9 ± 0.12
  Total HADS depression score: 9.6
  Total HAM-D score: 15.6
[2]; Visit 4 (week 4)
  CGI Efficacy Index: 2.3 ± 0.18
  CGI Improvement scale total score: 1.2 ± 0.11
  CGI Severity scale total score: 1.1 ± 0.07
  Total HADS depression score: 6.5
  Total HAM-D score: 14.1
[2]; Visit 5 (follow-up)
  CGI Efficacy Index: 2.3 ± 0.18
  CGI Improvement scale total score: 1.1 ± 0.07
  CGI Severity scale total score: 1.0 ± 0.00
  Total HADS depression score: 3.5
  Total HAM-D score: 12.1
[2]; group of 15
  Adverse event anxiety worsening: 2 patients
  Adverse event dizziness: 5 patients
  Adverse event headache: 3 patients

## O=C1CN=C(c2ccccc2Cl)c2cc(Br)ccc2N1 [phenazepam]
[3]; after treatment
  Hamilton scale score: 31.7±1.5
[3]; baseline score
  Hamilton scale score: 32.8±1.4

## NC(=O)CN1CCCC1=O [piracetam]
[4]; 2 months
  Children with increased disinhibition/excitability: 11.1%
  Children with sleep problems: 26%
[4]; First section
  TOVA Commission errors, %: 12.5 ± 3.2%
  TOVA Omission errors, %: 13.6 ± 1.4 %
  TOVA Response time: 736 ± 83 ms
[4]; Second section
  TOVA Commission errors, %: 21.1 ± 2.7%
  TOVA Omission errors, %: 17.2 ± 2.8 %
  TOVA Response time: 656 ± 79 ms
[4]; after treatment completion
  Total score for fine motor skills: 1.62 ± 0.16
[4]; after two months of treatment
  SNAP-IV Attention problems: 2.48 ± 0.12
  SNAP-IV Hyperactivity: 2.41 ± 0.10
  SNAP-IV Impulsivity: 2.28 ± 0.22
[5]; Memory recall
  Latency to enter the aversive compartment: 53.71 s
  Time spent in the black compartment: 13.11 s
[5]; Training
  Latency to enter the aversive compartment: 11.07 s
  Time spent in the black compartment: 21.1 s
